Test results reported in patent publication US20040180902A1, “3-Substituted quinoline-4-carboxamide derivatives as nk-3 and nk-2 receptor antagonists” (priority 2001, published 2004).

melting point [°C] | SMILES
212 to 215 | C[C@H](NC(=O)c1c(CN2CCN(CCO)C(=O)C2)c(-c2cccs2)nc2ccccc12)C1CCCCC1 [Example 1, 3-[4-(2-Hydroxy-ethyl)-3-oxo-piperazin-1-ylmethyl]-2-thiophen-2-yl-quinoline-4-carboxylic acid ((S)-1-cyclohexyl-ethyl)-amide]
125 to 127 | C[C@H](NC(=O)c1c(CN2CCN(C[C@H](O)CO)C(=O)C2)c(-c2ccccc2)nc2ccccc12)C1CCCCC1 [Example 4, (S) 3-[4-(2,3-Dihydroxy-propyl)-3-oxo-piperazin-1-ylmethyl]-2-phenyl-quinoline-4-carboxylic acid ((S)-1-cyclohexyl-ethyl)-amide]
133 to 135 | C[C@H](NC(=O)c1c(CN2CCN(C[C@@H](O)CO)C(=O)C2)c(-c2ccccc2)nc2ccccc12)C1CCCCC1 [Example 5, (R) 3-[4-(2,3-Dihydroxy-propyl)-3-oxo-piperazin-1-ylmethyl]-2-phenyl-quinoline-4-carboxylic acid ((S)-1-cyclohexyl-ethyl)-amide]
110 to 130 | C[C@H](NC(=O)c1c(CN2CCN(CCCO)C(=O)C2)c(-c2ccccc2)nc2ccc(F)cc12)C1CCCCC1 [Example 6, 6-Fluoro-3-[4-(3-hydroxy-propyl)-3-oxo-piperazin-1-ylmethyl]-2-phenyl-quinoline-4-carboxylic acid ((S)-1-cyclohexyl-ethyl)-amide]
120 to 122 | C[C@H](NC(=O)c1c(CN2CCN(CCO)C(=O)C2)c(-c2ccccc2)nc2ccc(F)cc12)C1CCCCC1 [Example 7, 6-Fluoro-3-[4-(2-hydroxy-ethyl)-3-oxo-piperazin-1-ylmethyl]-2-phenyl-quinoline-4-carboxylic acid ((S)-1-cyclohexyl-ethyl)-amide]
182 to 188 | C[C@H](NC(=O)c1c(CN2CCN(CCOCCO)CC2)c(-c2cccs2)nc2ccccc12)C1CCCCC1 [Example 11, 3-{4-[2-(2-Hydroxy-ethoxy)-ethyl]-piperazin-1-ylmethyl}-2-thiophen-2-yl-quinoline-4-carboxylic acid ((S)-1-cyclohexyl-ethyl)-amide]
110 | C[C@H](NC(=O)c1c(CN2CCN(CCO)CC2)c(-c2cccs2)nc2ccccc12)C1CCCCC1 [Example 12, 3-[4-(2-Hydroxy-ethyl)-piperazin-1-ylmethyl]-2-thiophen-2-yl-quinoline-4-carboxylic acid ((S)-1-cyclohexyl-ethyl)-amide]
120 to 122 | C[C@H](NC(=O)c1c(CN2CCN(CCCO)C(=O)C2)c(-c2ccccc2)nc2ccccc12)C1CCCCC1 [Example 14, 3-[4-(3-Hydroxy-propyl)-3-oxo-piperazin-1-ylmethyl]-2-phenyl-quinoline-4-carboxylic acid ((S)-1-cyclohexyl-ethyl)-amide]
125 to 128 | C[C@H](NC(=O)c1c(CN2CCN(CCOCCO)C(=O)C2)c(-c2ccccc2)nc2ccccc12)C1CCCCC1 [Example 16, 3-{4-[2-(2-Hydroxy-ethoxy)-ethyl]-3-oxo-piperazin-1-ylmethyl}-2-phenyl-quinoline-4-carboxylic acid ((S)-1-cyclohexyl-ethyl)-amide]
102 to 104 | C[C@H](NC(=O)c1c(CN2CCN(CCOCCO)C(=O)C2)c(-c2cccs2)nc2ccccc12)C1CCCCC1 [Example 17, 3-{4-[2-(2-Hydroxy-ethoxy)-ethyl]-3-oxo-piperazin-1-ylmethyl}-2-thiophen-2-yl-quinoline-4-carboxylic acid ((S)-1-cyclohexyl-ethyl)-amide]
117 to 119 | C[C@H](NC(=O)c1c(CN2CCN(CCCO)C(=O)C2)c(-c2cccs2)nc2ccccc12)C1CCCCC1 [Example 18, 3-[4-(3-Hydroxy-propyl)-3-oxo-piperazin-1-ylmethyl]-2-thiophen-2-yl-quinoline-4-carboxylic acid ((S)-1-cyclohexyl-ethyl)-amide]
115 to 117 | C[C@H](NC(=O)c1c(CN2CCN(C[C@H](O)CO)C(=O)C2)c(-c2cccs2)nc2ccccc12)C1CCCCC1 [Example 23, 3-[4-((S)-2,3-Dihydroxy-propyl)-3-oxo-piperazin-1-ylmethyl]-2-thiophen-2-yl-quinoline-4-carboxylic acid ((S)-1-cyclohexyl-ethyl)-amide]

More lines, now with the values behind:

SMILES | melting point [°C]
C[C@H](NC(=O)c1c(CN2CCNC(=O)C2)c(-c2ccccc2)nc2cc(F)c(F)cc12)C1CCCCC1 [Example 2, 6,7-Difluoro-3-(3-oxo-piperazin-1-ylmethyl)-2-phenyl-quinoline-4-carboxylic acid ((S)-1-cyclohexyl-ethyl)-amide] | 185 to 190
C[C@H](NC(=O)c1c(CN2CCN(CCOCCO)C(=O)C2)c(-c2ccccc2)nc2ccc(F)cc12)C1CCCCC1 [Example 3, 6-Fluoro-3-{4-[2-(2-hydroxy-ethoxy)-ethyl]-3-oxo-piperazin-1-ylmethyl}-2-phenyl-quinoline-4-carboxylic acid ((S)-1-cyclohexyl-ethyl)-amide] | 110 to 112
C[C@H](NC(=O)c1c(CN2CCN(CCOCCO)CC2)c(-c2ccccc2)nc2ccc(F)cc12)C1CCCCC1 [Example 8, 6-Fluoro-3-{4-[2-(2-hydroxy-ethoxy)-ethyl]-piperazin-1-ylmethyl}-2-phenyl-quinoline-4-carboxylic acid ((S)-1-cyclohexyl-ethyl)-amide] | 142 to 144
C[C@H](NC(=O)c1c(CN2CCN(CCCO)CC2)c(-c2ccccc2)nc2ccc(F)cc12)C1CCCCC1 [Example 9, 6-Fluoro-3-[4-(3-hydroxy-propyl)-piperazin-1-ylmethyl]-2-phenyl-quinoline-4-carboxylic acid ((S)-1-cyclohexyl-ethyl)-amide] | 182 to 184
C[C@H](NC(=O)c1c(CN2CCN(CCO)CC2)c(-c2ccccc2)nc2ccc(F)cc12)C1CCCCC1 [Example 10, 6-Fluoro-3-[4-(2-hydroxy-ethyl)-piperazin-1-ylmethyl]-2-phenyl-quinoline-4-carboxylic acid ((S)-1-cyclohexyl-ethyl)-amide] | 114 to 116
C[C@H](NC(=O)c1c(CN2CCN(CCCO)CC2)c(-c2ccccc2)nc2ccccc12)C1CCCCC1 [Example 13, 3-[4-(3-Hydroxy-propyl)-piperazin-1-ylmethyl]-2-phenyl-quinoline-4-carboxylic acid ((S)-1-cyclohexyl-ethyl)-amide] | 168 to 170
C[C@H](NC(=O)c1c(CN2CCNCC2=O)c(-c2ccccc2)nc2ccc(F)cc12)C1CCCCC1 [Example 15, 6-Fluoro-3-(2-oxo-piperazin-1-ylmethyl)-2-phenyl-quinoline-4-carboxylic acid ((S)-1-cyclohexyl-ethyl)-amide] | 240 to 242
C[C@H](NC(=O)c1c(CN2CCN(C[C@H](O)CO)CC2)c(-c2ccccc2)nc2ccccc12)C1CCCCC1 [Example 19, 3-[4-((S)-2,3-Dihydroxy-propyl)-piperazin-1-ylmethyl]-2-phenyl-quinoline-4-carboxylic acid ((S)-1-cyclohexyl-ethyl)-amide] | 124 to 126
C[C@H](NC(=O)c1c(CN2CCN(C[C@@H](O)CO)CC2)c(-c2ccccc2)nc2ccccc12)C1CCCCC1 [Example 20, 3-[4-((R)-2,3-Dihydroxy-propyl)-piperazin-1-ylmethyl]-2-phenyl-quinoline-4-carboxylic acid ((S)-1-cyclohexyl-ethyl)-amide] | 126 to 128
CC(NC(=O)c1c(CN2CCN(C[C@H](O)CO)C(=O)C2)c(-c2ccccc2)nc2ccc(F)cc12)C1CCCCC1 (stereo partly drawn) [Example 21, 3-[4-((S)-2,3-Dihydroxy-propyl)-3-oxo-piperazin-1-ylmethyl]-6-fluoro-2-phenyl-quinoline-4-carboxylic acid (1-cyclohexyl-ethyl)-amide] | 190 to 192
C[C@H](NC(=O)c1c(CN2CCN(C[C@@H](O)CO)C(=O)C2)c(-c2ccccc2)nc2ccc(F)cc12)C1CCCCC1 [Example 22, 3-[4-((R)-2,3-Dihydroxy-propyl)-3-oxo-piperazin-1-ylmethyl]-6-fluoro-2-phenyl-quinoline-4-carboxylic acid ((S)-1-cyclohexyl-ethyl)-amide] | 143 to 145
C[C@H](NC(=O)c1c(CN2CCN(C(=O)NCCO)CC2)c(-c2ccccc2)nc2ccccc12)C1CCCCC1 [Example 25, 3-[4-(2-Hydroxy-ethylcarbamoyl)-piperazin-1-ylmethyl]-2-phenyl-quinoline-4-carboxylic acid ((S)-1-cyclohexyl-ethyl)-amide] | 155 to 157
